Source: BindingDB's records for patent US20250066318 (Prothena Biosciences, 2025)

Target: Dual specificity tyrosine-phosphorylation-regulated kinase 1A (Homo sapiens, UniProt Q13627)
Experiment: DYRK1A Inhibition Assay
Method: 1. Add 5 μL enzyme & substrate mixture to each well in Column 2-23 and A24-H24 wells of the 384-well assay plate;2. Add 5 μL 0% Phosphorylation control to A1-H1 and I24-P24 wells of the assay plate;3. Add 5 μL 100% Phosphorylation control to I1-P1 wells of the assay plate;4. Spin the assay plate (1000 rpm, 1 minute @23° C.);5. Incubate enzyme with compounds for 15 minutes at 23° C.;6. Add 5 μL ATP solution to each well of the assay plate;7. Spin the plate (1000 rpm, 1 minute @23° C.);8. Incubate the assay plate for 90 minutes at 23° C.;9. Add 10 μL Development reagent A to each well of the assay plate;10. Centrifuge the plate at 1000 rpm about 15 seconds and seal a film over assay plate. Incubate the assay plate for 30 minutes at 23° C.11. Read assay plates on Envision (see Tables A, B, and C).Final Compound ConcentrationsAssay buffer: 50 mM Hepes pH7.5, 10 mM MgCl2, 1 mM EDTA, 0.01% Brij-35DYRK1A: 1 nMATP: 20 μMSer/Thr 18 peptide: 2 μMReaction time: 90 minutes.

Work on `N#Cc1cccc(Oc2cncc3ccc(-c4cnc5ccccn45)cc23)c1` [US20250066318, Compound I.6] yielded an IC50 of 550 nM.

`Cc1c(F)ncc2ccc(-c3cnn(C)c3)cc12` [US20250066318, Compound I.64] was tested, and the IC50 was 55 nM.

Work on `O=C(O)[C@H]1C[C@H](Nc2c(-c3cncs3)ccc3cnccc23)C1` [US20250066318, Compound I.67] yielded an IC50 greater than 1000 nM.

Compound `O=C(O)[C@H]1C[C@@H](Nc2c(-c3cncs3)ccc3cnccc23)C1` [US20250066318, Compound I.68] has an IC50 of 550 nM.

`O=C(O)[C@H]1C[C@@H](Oc2c(-c3cncs3)ccc3cnccc23)C1` [US20250066318, Compound I.69] showed an IC50 of 550 nM.

`O=C(O)[C@H]1C[C@H](Oc2c(-c3cncs3)ccc3cnccc23)C1` [US20250066318, Compound I.70] was tested, and the IC50 was 550 nM.

`O=C(O)[C@H]1C[C@@H](Nc2ncc(-c3ccc4cnccc4c3)s2)C1` [US20250066318, Compound I.71] gave an IC50 of 55 nM.

Compound `O=C(O)C1CN(c2cn3ncc(-c4ccc5cnccc5c4)c3cn2)C1` [US20250066318, Compound I.73] has an IC50 of less than 10 nM.

`O=C(O)C1CC(Nc2cc3cc(-c4cncs4)ccc3cn2)C1` (stereo not drawn) [US20250066318, Compound I.74] gave an IC50 of 55 nM.

In the case of `Cc1ncc2ccc(-c3cncs3)cc2c1OC1CNC1` [US20250066318, Compound I.75], the IC50 is reported as 55 nM.

In the case of `Cc1ncc2ccc(-c3cncs3)cc2c1OC1CN(C)C1` [US20250066318, Compound I.76], the IC50 is reported as 550 nM.

For `Cc1ncc2ccc(-c3cnn(C)c3)cc2c1OC1CNC1` [US20250066318, Compound I.77], the IC50 was 55 nM.

`Cc1ncc2ccc(-c3cnn(C)c3)cc2c1OC1CN(C)C1` [US20250066318, Compound I.78] gave an IC50 of 55 nM.

`Cc1ncc2ccc(-c3cncs3)cc2c1O[C@H]1C[C@@H](O)C1` [US20250066318, Compound I.79] gave an IC50 of less than 10 nM.

With `Cc1ncc2ccc(-c3cncs3)cc2c1O[C@H]1C[C@H](O)C1` [US20250066318, Compound I.80] the IC50 was less than 10 nM.

Work on `Cc1ncc2ccc(-c3cnn(C)c3)cc2c1O[C@H]1C[C@@H](O)C1` [US20250066318, Compound I.81] yielded an IC50 of less than 10 nM.

In the case of `Cc1ncc2ccc(-c3cnn(C)c3)cc2c1O[C@H]1C[C@H](O)C1` [US20250066318, Compound I.82], the IC50 is reported as less than 10 nM.

`Cn1cc(-c2ccc3cnc(NC(=O)OC4(C)CC4)cc3c2)cn1` [US20250066318, Compound I.83] showed an IC50 of less than 10 nM.

Compound `CS(=O)(=O)N1CCC(Oc2cncc3ccc(-c4cnn5cc(C(F)(F)F)ccc45)cc23)CC1` [US20250066318, Compound I.85] has an IC50 of less than 10 nM.

Compound `CC(=O)N1CCC(Oc2cncc3ccc(-c4cnn5cc(C(F)(F)F)ccc45)cc23)CC1` [US20250066318, Compound I.86] has an IC50 of less than 10 nM.

For `O=C(O)C1CCN(Cc2cncc3ccc(-c4cnn5cc(C(F)(F)F)ccc45)cc23)CC1` [US20250066318, Compound I.88], the IC50 was 550 nM.

`CC(=O)N1CCN(Cc2cncc3ccc(-c4cnn5cc(C(F)(F)F)ccc45)cc23)CC1` [US20250066318, Compound I.89] showed an IC50 of 55 nM.

With `Cn1cc(C#Cc2ncc(-c3ccc4cnccc4c3)s2)ccc1=O` [US20250066318, Compound I.92] the IC50 was less than 10 nM.

With `COc1cncc2ccc(-c3cnn4cc(-c5ccc(=O)n(C)c5)cnc34)cc12` [US20250066318, Compound I.93] the IC50 was less than 10 nM.

Work on `N#Cc1cncc2ccc(-c3cnc(C#CC4CCOCC4)s3)cc12` [US20250066318, Compound I.94] yielded an IC50 of 550 nM.

`C(#CC1CCOCC1)c1ncc(-c2ccc3cncc(OC4CCNCC4)c3c2)s1` [US20250066318, Compound I.95] gave an IC50 of less than 10 nM.

For `CC(=O)N1CCC(Oc2cncc3ccc(-c4cnc(C#CC5CCOCC5)s4)cc23)CC1` [US20250066318, Compound I.96], the IC50 was less than 10 nM.

Work on `CN1CCC(Oc2cncc3ccc(-c4cnc(C#CC5CCOCC5)s4)cc23)CC1` [US20250066318, Compound I.97] yielded an IC50 of less than 10 nM.

`C(#CC1CCOCC1)c1ncc(-c2ccc3cnc(OC4CCNCC4)cc3c2)s1` [US20250066318, Compound I.98] was tested, and the IC50 was 550 nM.

Compound `CC(=O)N1CCC(Oc2cc3cc(-c4cnc(C#CC5CCOCC5)s4)ccc3cn2)CC1` [US20250066318, Compound I.99] has an IC50 greater than 1000 nM.

`CN1CCC(Oc2cc3cc(-c4cnc(C#CC5CCOCC5)s4)ccc3cn2)CC1` [US20250066318, Compound I.100] showed an IC50 of 550 nM.

Work on `CC(=O)N1CCN(Cc2cc3cc(-c4cnc(C#CC5CCOCC5)s4)ccc3cn2)CC1` [US20250066318, Compound I.101] yielded an IC50 greater than 1000 nM.

`CN(C)[C@H]1CC[C@H](Oc2cc3cc(-c4cnc(C#CC5CCOCC5)s4)ccc3cn2)CC1` [US20250066318, Compound I.102] was tested, and the IC50 was greater than 1000 nM.

For `CN(C)[C@H]1CC[C@@H](Oc2cc3cc(-c4cnc(C#CC5CCOCC5)s4)ccc3cn2)CC1` [US20250066318, Compound I.103], the IC50 was greater than 1000 nM.

With `CC(C)CN1CCC(C#Cc2ncc(-c3ccc4cnc(Cl)cc4c3)s2)CC1` [US20250066318, Compound I.104] the IC50 was 55 nM.

Compound `CC(C)CN1CCC(C(=O)Nc2ncc(-c3ccc4cnc(C5CC5)cc4c3)s2)CC1` [US20250066318, Compound I.105] has an IC50 of 55 nM.

`Cn1cc(-c2ccc3cnc(C#CC4CCNCC4)cc3c2)cn1` [US20250066318, Compound I.106] gave an IC50 of 55 nM.

`CN1CCC(C#Cc2cc3cc(-c4cnn(C)c4)ccc3cn2)CC1` [US20250066318, Compound I.107] showed an IC50 of 55 nM.

In the case of `Cn1cc(-c2ccc3cnc(C#CC4CCOCC4)cc3c2)cn1` [US20250066318, Compound I.108], the IC50 is reported as 55 nM.

`CN1CCc2c(c(-c3cnc4c(-c5ccc(C#N)cc5)cnn4c3)cn(C)c2=O)C1` [US20250066318, Compound II.43] was tested, and the IC50 was greater than 1000 nM.

Work on `Cn1c(C2CCNCC2)cn2ncc(-c3ccc(C#N)cc3)c2c1=O` [US20250066318, Compound II.44] yielded an IC50 of 625 nM.

With `CN1CCC(c2cn3ncc(-c4ccc(C#N)cc4)c3c(=O)n2C)CC1` [US20250066318, Compound II.45] the IC50 was 625 nM.

Compound `CN1CC=C(c2cn3ncc(-c4ccc(C#N)cc4)c3c(=O)[nH]2)CC1` [US20250066318, Compound II.46] has an IC50 of 175 nM.
